Article PMC6152631, “Microwave-Assisted Facile Synthesis, Anticancer Evaluation and Docking Study of N-((5-(Substituted methylene amino)-1,3,4-thiadiazol-2-yl)methyl) Benzamide Derivatives” (Molecules : A Journal of Synthetic Chemistry and Natural …, 2017)
Blank lines part the entries; values can stand above or below the compound they belong to.

Legend:
Assay type in all cases: cell-based
[1] = system: SKMEL-2 (human melanoma cancer cell line); experiment: MTT assay, in vitro anticancer activity, SKMEL-2; details: SK-MEL-2, 48 h treatment
Experimental: (§1) The synthesized compounds 7(a–l) were evaluated for their in vitro anticancer activity against MCF-7 (human breast cancer cell line), HeLa (human cervical cancer cell line), SKMEL-2 (human melanoma cancer cell line) and HL-60 (human leukemia cancer cell line) cancer cell lines, as shown in Table 2. […] The GI50 values (the concentration required to achieve a growth inhibition of 50%) for the synthesized compounds were determined by MTT assay method. The in vitro anticancer evaluation results and GI50 values were listed in Table 2, and the well-known anticancer drug Adriamycin was used as positive control.
(§2) The synthesized compounds 7(a–l) were evaluated for their in vitro anticancer activity against MCF-7 (human breast cancer cell line), HeLa (human cervical cancer cell line), SKMEL-2 (human melanoma cancer cell line) and HL-60 (human leukemia cancer cell line) cancer cell lines. The GI50 values (concentration required to Growth inhibition of 50%) for the synthesized compounds were determined using the MTT assays method.
(§3) The stock solutions of test compounds were prepared in DMSO. After 24 h incubation, different concentrations (2, 4, 6, 8 µM) of compounds, made by serial dilution in culture medium, were added in 48 h incubation. The final concentration of DMSO was 0.01% in each well. […] The cell growth was determined using MTT (3-(4,5-dimethylthiazol-2-yl)-2,5-diphenyl tetrazolium bromide (Sigma, St. Louis, MO, USA) reduction assay, which is based on the ability of viable cells to reduce a soluble yellow tetrazolium salt to blue formazan crystal. Briefly, after 48 h of treatments, the 10 µl of MTT dye, prepared in phosphate buffered saline (PBS) was added to all wells. The plates were then incubated for 4 h at 37 °C. Supernatant from each well was carefully removed, formazon crystals were dissolved in 100 µL of DMSO and absorbance at 540 nm wavelength was recorded and each concentration was tested in threefold. The GI50 values were determined as concentration of compounds that inhibited cancer cell growth by 50%.

[2] = system: HL-60 (human leukemia cancer cell line); experiment: MTT assay, in vitro anticancer activity, HL-60; details: 48 h treatment
Experimental: as §1, §2, §3

[3] = system: HeLa (human cervical cancer cell line); experiment: MTT assay, in vitro anticancer activity, HeLa; details: 48 h treatment
Experimental: as §1, §2, §3

[4] = system: MCF-7 (human breast cancer cell line); experiment: MTT assay, in vitro anticancer activity, MCF-7; details: MCF7, 48 h treatment
Experimental: as §1, §2, §3

[5] = MTT assay, cytotoxicity on non-tumorigenic cells, MCF-10A; details: human, MCF-10A non-tumorigenic breast epithelial cells; MTT, MCF-10A normal breast epithelial cells
Experimental: [The procedure below names another cell line; the source lists this cell line under the same test.] as §1, §3

[6] = system: MCF-10A normal breast epithelial cell lines; experiment: as above; details: MCF-7 vs MCF-10A GI50
Experimental: [The procedure below names another cell line; the source lists this cell line under the same test.] as §1, §3

SMILES: COc1cccc2c1C(=O)c1c(O)c3c(c(O)c1C2=O)C[C@@](O)(C(=O)CO)C[C@@H]3O[C@H]1C[C@H](N)[C@H](O)[C@H](C)O1 [ADR, Adriamycin, reference compound]
GI50 [1]: < 10 µM
GI50 [2]: < 10 µM
GI50 [3]: < 10 µM
GI50 [4]: < 10 µM

SMILES: O=C(NCc1nnc(/N=C/c2ccc(Cl)cc2)s1)c1ccccc1 [Compound 7a, (E)-N-((5-(4-Chlorobenzylideneamino)-1,3,4-thiadiazol-2-yl)methyl) benzamide]
GI50 at 48 h [5]: > 100 µM
GI50 [1]: 21.9 µM
GI50 [2]: 21.7 µM
GI50 [3]: 32.8 µM
GI50 [4]: 22.9 µM

SMILES: CCOc1cc(/C=N/c2nnc(CNC(=O)c3ccccc3)s2)ccc1O [Compound 7f, (E)-N-((5-(3-Ethoxy-4-hydroxybenzylideneamino)-1,3,4-thiadiazol-2-yl)methyl) benzamide]
GI50 [1]: 30 µM
GI50 [2]: 37.5 µM
GI50 [3]: 49.2 µM
GI50 [4]: 38.4 µM

SMILES: COc1ccc(/C=N/c2nnc(CNC(=O)c3ccccc3)s2)cc1 [Compound 7g, (E)-N-((5-(4-Methoxybenzylideneamino)-1,3,4-thiadiazol-2-yl)methyl) benzamide]
GI50 [1]: 46.4 µM
GI50 [2]: 42.4 µM
GI50 [3]: 66.1 µM
GI50 [4]: 41 µM

SMILES: COc1ccc(/C=N/c2nnc(CNC(=O)c3ccccc3)s2)cc1OC [Compound 7h, (E)-N-((5-(3,4-Dimethoxybenzylideneamino)-1,3,4-thiadiazol-2-yl)methyl) benzamide]
GI50 [1]: 49.1 µM
GI50 [2]: 48.2 µM
GI50 [3]: 71.7 µM
GI50 [4]: 46.2 µM

SMILES: O=C(NCc1nnc(/N=C/c2cccs2)s1)c1ccccc1 [Compound 7l, (E)-N-((5-(Thiophen-2-ylmethyleneamino)-1,3,4-thiadiazol-2-yl)methyl) benzamide]
GI50 at 48 h [5]: > 100 µM
GI50 [1]: 22 µM
GI50 [2]: 29.9 µM
GI50 [3]: 28.8 µM
GI50 [4]: 19 µM

Further compounds by falling GI50 [1], results first:

GI50 [1]: 55.7 µM
GI50 [2]: 49.9 µM
GI50 [3]: 78.8 µM
GI50 [4]: 51.4 µM
SMILES: COc1cc(OC)c(OC)cc1/C=N/c1nnc(CNC(=O)c2ccccc2)s1 [Compound 7j, (E)-N-((5-(2,4,5-Trimethoxybenzylideneamino)-1,3,4-thiadiazol-2-yl)methyl) benzamide]

GI50 [1]: 52.6 µM
GI50 [2]: 45.8 µM
GI50 [3]: 78 µM
GI50 [4]: 49 µM
SMILES: COc1cc(/C=N/c2nnc(CNC(=O)c3ccccc3)s2)cc(OC)c1OC [Compound 7i, (E)-N-((5-(3,4,5-Trimethoxybenzylideneamino)-1,3,4-thiadiazol-2-yl)methyl) benzamide]

GI50 [1]: 34 µM
GI50 [2]: 40.2 µM
GI50 [3]: 52.4 µM
GI50 [4]: 36.7 µM
SMILES: O=C(NCc1nnc(/N=C/c2ccccc2O)s1)c1ccccc1 [Compound 7d, (E)-N-((5-(2-Hydroxybenzylideneamino)-1,3,4-thiadiazol-2-yl)methyl) benzamide]

GI50 [1]: 28.1 µM
GI50 [2]: 39.6 µM
GI50 [3]: 46.8 µM
GI50 [4]: 35.2 µM
SMILES: COc1cc(/C=N/c2nnc(CNC(=O)c3ccccc3)s2)ccc1O [Compound 7e, (E)-N-((5-(4-Hydroxy-3-methoxybenzylideneamino)-1,3,4-thiadiazol-2-yl)methyl) benzamide]

GI50 [1]: 27.5 µM
GI50 [2]: 33.3 µM
GI50 [3]: 41.1 µM
GI50 [4]: 32.4 µM
SMILES: O=C(NCc1nnc(/N=C/c2ccc(O)cc2)s1)c1ccccc1 [Compound 7c, (E)-N-((5-(4-Hydroxybenzylideneamino)-1,3,4-thiadiazol-2-yl)methyl) benzamide]

GI50 [1]: 22.9 µM
GI50 [2]: 28.2 µM
GI50 [3]: 39 µM
GI50 [4]: 28.7 µM
SMILES: O=C(NCc1nnc(/N=C/c2ccc(Cl)cc2Cl)s1)c1ccccc1 [Compound 7b, (E)-N-((5-(2,4-Dichlorobenzylideneamino)-1,3,4-thiadiazol-2-yl)methyl) benzamide]
GI50 at 48 h [5]: 86.1 µM
selectivity for MCF-7 cancer cell lines in comparison to MCF-10A normal breast epithelial cell lines [6]: three

GI50 [1]: 19.6 µM
GI50 [2]: 35.5 µM
GI50 [3]: 23.8 µM
GI50 [4]: 11.7 µM
SMILES: O=C(NCc1nnc(/N=C/c2ccco2)s1)c1ccccc1 [Compound 7k, (E)-N-((5-(Furan-2-ylmethyleneamino)-1,3,4-thiadiazol-2-yl)methyl) benzamide]
GI50 at 48 h [5]: > 100 µM
